What was measured:
Botrytis cinerea = assay: Activity against the gray mold pathogen Botrytis cinerea in the microtiter test (M1 / C1); type: cell-based; conditions: comparison with the prior art, day 7
Description: (§1) Leaves of soybean seedlings grown in pots were inoculated with a spore suspension of soybean rust (Phakopsora pachyrhizi). The pots were then placed in a chamber of high atmospheric humidity (90 to 95%) and 23 to 27° C. for 24 hours. During this time, the spores germinated and the germ tubes penetrated into the leaf tissue. The infected plants were then cultivated further in a greenhouse at temperatures between 23 and 27° C. and 60 to 80% relative atmospheric humidity. After two days, the plants were sprayed to runoff point with the active compound solution described above at the active compound concentration indicated below. After the spray coating had dried on, the test plants were cultivated in a greenhouse at temperatures between 23 and 27° C. and 60 to 80% relative atmospheric humidity for a further 10 days. The extent of the rust fungus development on the leaves was then determined visually in % of infection. […] B) Micro test The active compounds were formulated separately as a stock solution having a concentration of 10 000 ppm in DMSO.
(§2) The stock solution was pipetted into a microtiter plate (MTP) and diluted with water to the stated active compound concentration. […] Using an absorption photometer, the MTPs were measured at 405 nm on day 7 after the inoculation. The measured parameters were compared to the growth of the active compound-free control variant and the fungus- and active compound-free blank value to determine the relative growth in % of the pathogens in the individual active compounds.
(§3) The active compounds were formulated separately as a stock solution having a concentration of 10 000 ppm in DMSO. […] Using an absorption photometer, the MTPs were measured at 405 nm on day 7 after the inoculation. The measured parameters were compared to the growth of the active compound-free control variant and the fungus- and active compound-free blank value to determine the relative growth in % of the pathogens in the individual active compounds. […] […]

Septoria tritici = assay: Activity against the Septoria leaf blotch pathogen Septoria tritici in the microtiter test (M2 / C2); type: cell-based; conditions: comparison with the prior art, day 7
Description: as §1
as §2, with “variant (100%)” for “variant”, “compounds. […]” for “compounds.”
as §3

SMILES	Growth (%) at 31 ppm of C1 (Botrytis cinerea)	Growth (%) at 31 ppm of C2 (Septoria tritici)
Cc1ccc(CCC(C(O)C(C)(C)C)n2cncn2)cc1 (stereo not drawn)	4%	4%
Cc1ccc(C(C)CC(C(O)C(C)(C)C)n2cncn2)cc1 (stereo not drawn)	0%	3%
CC(C)(C)C(O)C(CCc1ccccc1)n1cncn1 (stereo not drawn) [reference compound]	81%	100%

Source: patent US20110172098A1, “Imidazole and Triazole Compounds, Their Use and Agents Containing the Same” (priority 2008, published 2011)
